From patent publication US6903132B2, “Non-peptide GnRH agents, pharmaceutical compositions and methods for their use” (Agouron Pharmaceuticals, Inc., priority 2002, dated 2005)
pKi: −log10 of the molar value.

Legend:
human GnRH receptors = target: T1, human GnRH receptors (Homo sapiens, UniProt P30968); experiment: Radioligand binding assay: inhibition of binding of 125I-GnRH-A to GnRH receptors (membranes); details: Human GnRH receptor; competition with 125I-GnRH-A; Ki calculated from IC50 (Cheng et al.)
T1 construct: expressed in transfected cells; host or cells: HEK 293
T1 sequence (P30968 1-328): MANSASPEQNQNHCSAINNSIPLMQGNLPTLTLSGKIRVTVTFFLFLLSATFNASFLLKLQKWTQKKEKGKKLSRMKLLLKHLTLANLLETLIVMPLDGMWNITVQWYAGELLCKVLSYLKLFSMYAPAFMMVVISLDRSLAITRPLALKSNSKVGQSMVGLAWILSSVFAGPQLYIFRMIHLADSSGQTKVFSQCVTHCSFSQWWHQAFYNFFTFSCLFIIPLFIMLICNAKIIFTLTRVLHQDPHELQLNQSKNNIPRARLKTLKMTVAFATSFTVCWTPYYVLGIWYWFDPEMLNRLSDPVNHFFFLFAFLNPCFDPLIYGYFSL
Experimental: (§1) HEK 293 cells stably transfected with mouse or human GnRH receptors as described above are grown in Dulbecco's high-glucose, modified Eagle's medium (DMEM) supplemented with 0.2% G418, 10% fetal bovine serum (FBS) and 100U/mL penicillin/streptomycin. GH3 cells stably transfected with the rat GnRH receptor (GGH3) were provided by Dr. William Chin (Harvard Medical School, Boston, Mass.). These cells are extensively characterized previously (Kaiser et al., 1997). The cells are grown in low glucose DMEM containing: 100U/mL penicillin/streptomycin, 0.6% G418 and 10% heat-inactivated FBS.
(§2) HEK 293 cells containing mouse or human receptors, or rat pituitaries (Pel Freez Biologicals, Rogers, Ark.) are homogenized in buffer A containing: 50 mM Tris (pH 7.4), 0.32 M sucrose, 2 mM EGTA, 1 mM PMSF, 5 μg/ml aprotinen, 5 μg/ml Pepstatin A, and 1 μg/ml leupeptin. Homogenized cells are centrifuged at 4° C. at 20,000×g for 25 minutes, re-suspended in buffer A and re-centrifuged at 4° C. at 20,000×g for an additional 25 minutes. Total membrane protein was determined with a BCA kit (Pierce, Rockford, Ill.). Membranes are stored at −70° C. at a final membrane protein concentration of approximately 5 mg/ml.
(§3) The radioiodinated agonist analog of GnRH, [des-Gly^10, D-Ala^6]GnRH ethylamide (^125I-GnRH-A), is used as the radioligand. One μg of GnRH-A diluted in 0.5 M phosphate buffer (pH 7.4) is added to an lodogen®-coated borosilicate glass tube (Pierce, Rockford, Ill.) containing 35 μl of 0.05 M phosphate buffer (pH 7.4-7.6) and 1 mCi of Na[^125I]. The reaction mixture is vortexed and incubated for 1 minute at room temperature. After one minute, the mixture is vortexed and allowed to incubate for an additional minute. 2 ml of 0.5 M acetic acid/1% BSA is added to the reaction tube and the mixture is added to a C18 Sep-Pak cartridge. The cartridge is washed with subsequent washes of 5 ml H2O and 5 ml 0.5 M acetic acid and then eluted with 5×1 ml of 60%CH3CN/40% 0.5 M acetic acid. The eluate is diluted with 3× volume of HPLC buffer A (0.1% TFA in H2O) and loaded onto a C18 column. The iodinated product is eluted over 20-25 min with a gradient of 25-100% CH3CN containing 0.1% TFA. The radioactive fractions (750 μl/fraction) are collected into clean polypropylene tubes containing 100 μl of 10% BSA. Fractions are assessed for biological activity by radiolig and binding. Specific activity of the radioligand was approximately 2200 Ci/mmol.
(§4) Membranes are diluted to 0.01-0.5 mg/ml (depending upon the species of receptor) with assay buffer containing 50 mM HEPES (pH 7.4), 1 mM EDTA, 2.5 mM MgCl2, and 0.1% BSA. Membranes (diluted to utilize similar receptor numbers between assays) are incubated with approximately 0.04-0.06 nM ^125I-GnRH-A in the presence or absence of competing agents (0.1-10,000 nM) in a total volume of 200 μl in 96-well polypropylene plates for 1 hour at room temperature. Assays are stopped by rapid filtration onto 96-well GF/C filters soaked in 0.1% polyethylenimine (PEI) utilizing a Packard 96-well cell harvester. Filters are washed three times with ice-cold PBS (50 mM NaPO4, 0.9% NaCl, 2 mM MgCl2, and 0.02% NaN3, pH 7.4). 35 μl of scintillation cocktail is added to each filter well and filters are counted on a Packard Topcount. Control dose-response curves are generated to GnRH (0.1 nM-100 nM) in each competition binding experiment. Ki values were calculated from IC50 values according to Cheng et al., Biochemical Pharmacol. 22: 3099-3108, 1973. [formula]

rat GnRH receptor = target: T2, rat GnRH receptor (Rattus norvegicus, UniProt P30969); experiment: as above; details: competition with 125I-GnRH-A, Ki calculated from IC50 (Cheng et al.)
T2 construct: rat pituitaries (Pel Freez Biologicals, Rogers, Ark.) are homogenized in buffer A; tissue Pel Freez Biologicals; host or cells: rat pituitaries
T2 sequence (P30969 1-327): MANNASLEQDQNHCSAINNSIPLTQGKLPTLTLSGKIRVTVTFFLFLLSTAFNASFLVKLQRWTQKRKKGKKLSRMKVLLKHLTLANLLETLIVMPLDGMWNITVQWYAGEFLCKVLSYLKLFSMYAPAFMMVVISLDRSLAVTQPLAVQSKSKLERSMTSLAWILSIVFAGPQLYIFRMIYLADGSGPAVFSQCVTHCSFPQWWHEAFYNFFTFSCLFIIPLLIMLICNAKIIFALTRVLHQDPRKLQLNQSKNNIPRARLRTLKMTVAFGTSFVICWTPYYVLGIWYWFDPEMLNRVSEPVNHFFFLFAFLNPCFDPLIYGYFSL
Experimental: as §1, §2, §3, §4

| SMILES | pKi (human GnRH receptors) | pKi (rat GnRH receptor) |
| --- | --- | --- |
| Cc1cc2c(cc1Oc1ccc(C(=O)NNc3ccc4ccccc4n3)o1)C(C)(C)OC2 [Example N3, 5-(3,3,6-Trimethyl-1,3-dihydro-isobenzofuran-5-yloxy)-furan-2-carboxylic acid N′-quinolin-2-yl-hydrazide] | 6.89 | 7.00 |
| Cc1cc2c(cc1Oc1ccc(C(=O)NNc3ncc(C(F)(F)F)cc3Cl)o1)C(C)(C)C(C)C2(C)C (centres unmarked) [Example M1, 5-(1,1,2,3,3,6-Hexamethyl-indan-5-yloxy)-furan-2-carboxylic acid N′-(chloro-trifluoromethyl-pyridin-2-yl)-hydrazide] | 7.64 | 7.96 |
| Cc1cc2c(cc1Cc1ccc(C(=O)NNc3cc(C)c4c(C)nn(C)c4n3)o1)C(C)(C)CCC2 [Example J26, 5-(3,8,8-Trimethyl-5,6,7,8-tetrahydro-naphthalen-2-ylmethyl)-furan-2-carboxylic acid N′-(1,3,4-trimethyl-1H-pyrazolo[3,4-b]pyridin-6-yl)-hydrazide] | 8.80 | 7.77 |
| Cc1cc2c(cc1Cc1ccc(C(=O)NNc3ccc4ccccc4n3)o1)C(C)(C)OC2(C)C [Example E4, 5-(1,1,3,3,6-Pentamethyl-1,3-dihydro-isobenzofuran-5-ylmethyl)-furan-2-carboxylic acid N′-quinolin-2-yl-hydrazide] | 7.62 | 7.64 |
| Cc1cc2c(cc1Cc1ccc(C(=O)NNc3ncc(C(F)(F)F)cc3Cl)o1)C(C)(C)OC2(C)C [Example E3, N′-[3-chloro-5-(trifluoromethyl)pyridin-2-yl]-5-[(1,1,3,3,6-pentamethyl-1,3-dihydro-2-benzofuran-5-yl)methyl]-2-furohydrazide] | 6.08 | 7.04 |
| Cc1cc2c(c(Br)c1Oc1ccc(C(=O)NNc3cc(C)c4c(C)nn(C)c4n3)o1)C(C)(C)CC2 [Example I22, 5-(4-Bromo-3,3,6-trimethyl-indan-5-yloxy)-furan-2-carboxylic acid N′-(1,3,4-trimethyl-1H-pyrazolo[3,4-b]pyridin-6-yl)-hydrazide] | 8.00 | 7.28 |
| Cc1cc2c(cc1Oc1ccc(C(=O)NNc3ncnc4scc(C)c34)o1)C(C)(C)CC(C)C2(C)C (centres unmarked) [Example I15, 5-(3,5,5,6,8,8-Hexamethyl-5,6,7,8-tetrahydro-naphthalen-2-yloxy)-furan-2-carboxylic acid N′-(5-methyl-thieno[2,3-d]pyrimidin-4-yI)-hydrazide] | 8.14 | 7.72 |
| Cc1cc2c(cc1Oc1ccc(C(=O)NNc3ccc(C(F)(F)F)cn3)o1)C(C)(C)C(C)C2(C)C (centres unmarked) [Example M2, 5-(1,1,2,3,3,6-Hexamethyl-indan-5-yloxy)-furan-2-carboxylic acid N′-(5-trifluoromethyl-pyridin-2-yl)-hydrazide] | 7.72 | 7.54 |
| Cc1c(C)c(Cc2ccc(C(=O)NNc3cc(C)c4c(C)nn(C)c4n3)o2)c(C)c(Cc2ccc(C(=O)NNc3cc(C)c4c(C)nn(C)c4n3)o2)c1C [Example J29, 3-(2,3,4,6-Tetramethyl-5-{5-[N′-(1,3,4-trimethyl-1H-pyrazolo[3,4-b]pyridin-6-yl)-hydrazinocarbonyl]-furan-2-ylmethyl}-benzyl)-furan-1-carboxylic acid N′-(1,3,4-trimethyl-1H-pyrazolo[3,4-b]pyridin-6-yl)-hydrazide] | 5.28 |  |
| Cc1cc(NNC(=O)c2ccc(Oc3cc4c(cc3Cl)NC(=O)CC4(C)C)o2)nc2c1c(C)nn2C [Example L1] | 5.68 |  |
| COc1ccc(OC)c(Cc2ccc(C(=O)NNc3cc(C)c4c(C)nn(C)c4n3)o2)c1 [Example J6, 5-(2,5-Dimethoxy-benzyl)-furan-2-carboxylic acid N′-(1,3,4-trimethyl-1H-pyrazolo[3,4-b]pyridin-6-yl)-hydrazide] | 4.79 |  |
| Cc1cc(NNC(=O)c2ccc(Cc3cc4c(cc3C(C)C)C(C)(C)CCC4(C)C)o2)nc2c1c(C)nn2C [Example C3, 5-[(3-lsopropyl-5,5,8,8-tetramethyl-5,6,7,8-tetrahydro-2-naphthalenyl)methyl]-N′-(1,3,4-trimethyl-1H-pyrazolo[3,4-b]pyridin-6-yl)-2-furohydrazide] | 6.52 |  |
| Cc1ccc(N(C)NC(=O)c2ccc(Oc3cc4c(cc3C)C(C)(C)C(C)CC4(C)C)o2)nn1 (centres unmarked) [Example I16, 5-(3,5,5,6,8,8-Hexamethyl-5,6,7,8-etrahydro-naphthalen-2-yloxy)-furan-2-carboxylic acid N′-methyl-N′-(6-methyl-pyridazin-3-yl)-hydrazide] | 8.05 | 7.74 |
| CCN(CC)C(=O)c1ccc(C)c(Oc2ccc(C(=O)NNc3cc(C)c4c(C)nn(C)c4n3)o2)c1 [Example H1, N,N-diethyl-4-methyl-3-[(5-{[2-(1,3,4-trimethyl-1H-pyrazolo[3,4-b]pyridin-6-yl)hydrazino]carbonyl}-2-furyl)oxy]benzamide] | 5.25 |  |
| Cc1cc(O)ccc1Cc1ccc(C(=O)NNc2cc(C)c3c(C)nn(C)c3n2)o1 [Example J21, 5-(4-Hydroxy-2-methylbenzyl)-N′-(1,3,4-trimethyl-1H-pyrazolo[3,4-b]pyridin-6-yl)-2-furohydrazide] | ≤ 5.00 |  |
| Cc1cc(C)c(Cc2ccc(C(=O)NNc3cc(C)c4c(C)nn(C)c4n3)o2)c(C)c1 [Example J3, 5-(Mesitylmethyl)-N′-(1,3,4-trimethyl-1H-pyrazolo[3,4-b]pyridin-6-yl)-2-furohydrazide] | 6.40 |  |
| Cc1cc2c(cc1Oc1ccc(C(=O)NNc3ccc4ccccc4n3)o1)C(C)(C)C(C)C2(C)C (centres unmarked) [Example M3, 5-(1,1,2,3,3,6-Hexamethyl-indan-5-yloxy)-furan-2-carboxylic acid N′-quinolin-2-yl-hydrazide] | 8.39 | 8.54 |
| Cc1cc2c(cc1Oc1ccc(C(=O)NNc3ncc(C(F)(F)F)cc3Cl)o1)C(C)(C)OC2 [Example N1, 5-(3,3,6-Trimethyl-1,3-dihydro-isobenzofuran-5-yloxy)-furan-2-carboxylic acid N′-(chloro-trifluoromethyl-pyridin-2-yl)-hydrazide] | 5.94 |  |
| CC(=O)N1CCC(C)(C)c2cc(Oc3ccc(C(=O)NNc4cc(C)c5c(C)nn(C)c5n4)o3)c(Cl)cc21 [Example I1, 5-(1-Acetyl-7-chloro-4,4-dimethyl-1,2,3,4-tetrahydro-quinolin-6-yloxy)-furan-2-carboxylic acid N′-(1,3,4-trimethyl-1H-pyrazolo[3,4-b]pyridin-6-yl)-hydrazide] | 6.20 |  |
